Values quoted from earlier work as cited in patent US10716774B1, “Pharmaceutical compositions containing isotretinoin with improved dissolution profile and enhanced stability” (Yale Pharmaceuticals LLC, priority 2018, dated 2020).

Settings: after multiple dosing, in man

plasma concentration relative to that of the parent drug: about 4 fold
Structure (SMILES): CC1=C(/C=C/C(C)=C/C=C/C(C)=C/C(=O)O)C(C)(C)CCC1=O [4-oxo-isotretinoin]
